This note sets out measurements from patent US20260265208A1, “TETRALINE, PHENYLCYCLOBUTANE AND PHENYLCYCLOPENTANE ANALOGS AS RXFP1 AGONISTS” (BRISTOL-MYERS SQUIBB COMPANY, priority 2021, published 2026).

The first experiment concerns the target T1, human RXFP1 (Homo sapiens, UniProt Q9HBX9).
T1 construct: expressed in transfected cells
T1 sequence (Q9HBX9 1-757): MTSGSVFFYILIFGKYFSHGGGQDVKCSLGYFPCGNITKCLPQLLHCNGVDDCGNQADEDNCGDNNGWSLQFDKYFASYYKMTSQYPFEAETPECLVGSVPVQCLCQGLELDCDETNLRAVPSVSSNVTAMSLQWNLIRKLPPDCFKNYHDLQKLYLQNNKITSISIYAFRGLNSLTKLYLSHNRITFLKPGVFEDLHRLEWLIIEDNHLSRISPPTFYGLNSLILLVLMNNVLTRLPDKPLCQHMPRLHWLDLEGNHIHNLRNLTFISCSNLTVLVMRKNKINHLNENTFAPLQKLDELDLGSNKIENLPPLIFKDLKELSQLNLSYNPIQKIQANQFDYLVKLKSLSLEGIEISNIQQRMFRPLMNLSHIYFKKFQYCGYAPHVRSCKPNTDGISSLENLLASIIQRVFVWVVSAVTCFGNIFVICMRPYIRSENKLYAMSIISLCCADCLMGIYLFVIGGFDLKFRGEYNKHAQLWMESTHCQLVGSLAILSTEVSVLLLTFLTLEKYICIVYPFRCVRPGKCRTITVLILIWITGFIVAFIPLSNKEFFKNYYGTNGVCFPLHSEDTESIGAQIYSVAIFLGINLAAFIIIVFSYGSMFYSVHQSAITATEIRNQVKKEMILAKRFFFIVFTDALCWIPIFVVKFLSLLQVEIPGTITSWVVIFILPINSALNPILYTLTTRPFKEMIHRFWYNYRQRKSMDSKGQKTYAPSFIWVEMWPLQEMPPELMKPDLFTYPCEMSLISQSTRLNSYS
Briefly: hRXFP1 HEK293 cAMP assay (HTRF). The format is cell-based. The note with it: HEK293 cells stably expressing human RXFP1; phenylcyclohexyl (tetraline) examples. As for the experimental part:
RXFP1 Cyclic Adenosine Monophosphate (cAMP) Assays. Human embryonic kidney cells 293 (HEK293) cells and HEK293 cells stably expressing human RXFP1, were cultured in MEM medium supplemented with 10% qualified FBS, and 300 μg/ml hygromycin (Life Technologies). Cells were dissociated and suspended in assay buffer. The assay buffer was HBSS buffer (with calcium and magnesium) containing 20 mM HEPES, 0.05% BSA, and 0.5 mM IBMX. Cells (3000 cells per well, except 1500 cell per well for HEK293 cells stably expressing human RXFP1) were added to 384-well Proxiplates (Perkin-Elmer). Cells were immediately treated with test compounds in DMSO (2% final) at final concentrations in the range of 0.010 nM to 50 μM. Cells were incubated for 30 min at room temperature. The level of intracellular cAMP was determined using the HTRF HiRange cAMP assay reagent kit (Cisbio) according to manufacturer's instructions. Solutions of cryptate conjugated anti-cAMP and d2 fluorophore-labelled cAMP were made in a supplied lysis buffer separately. Upon completion of the reaction, the cells were lysed with equal volume of the d2-cAMP solution and anti-cAMP solution. After a 1 h room temperature incubation, time-resolved fluorescence intensity was measured using the Envision (Perkin-Elmer) at 400 nm excitation and dual emission at 590 nm and 665 nm. A calibration curve was constructed with an external cAMP standard at concentrations ranging from 2.7 μM to 0.1 μM by plotting the fluorescent intensity ratio from 665 nm emission to the intensity from the 590 nm emission against cAMP concentrations. The potency and activity of a compound to […] cAMP production was then determined by fitting to a 4-parametric logistic equation from a plot of cAMP level versus compound concentrations.
The examples disclosed below were tested in the human RXFP1 (hRXFP1) HEK293 cAMP assay described above and found to have agonist activity. Tables 1-3, lists EC50 values in the hRXFP1 HEK293 cAMP assay measured for the examples.
The term EC50 denotes the concentration giving half of the maximal effect. A higher EC50 goes with a less potent agent. Consider `COc1ccc(C2=NOC3CNCC23)cc1C(=O)Nc1cc2c(cc1C(=O)Nc1ccc(F)c(C(F)(F)F)c1)CCCC2` (mixture of isomers) [Example 15, N-(4-fluoro-3-(trifluoromethyl)phenyl)-3-(2-methoxy-5-(3a,5,6,6a-tetrahydro-4H-pyrrolo[3,4-d]isoxazol-3-yl)benzamido)-5,6,7,8-tetrahydronaphthalene-2-carboxamide], for which the concentration giving a half-maximal response (EC50) was determined as 3700 nM.
Molecule `COc1ccc(-c2cc(C(NC(=O)C3CCOCC3)C(=O)O)ccc2F)cc1C(=O)Nc1cc2c(cc1C(=O)Nc1ccc(F)c(C(F)(F)F)c1)CCCC2` (single isomer, unassigned) [Example 2, 2-(6-fluoro-3′-((3-((4-fluoro-3-(trifluoromethyl)phenyl)carbamoyl)-5,6,7,8-tetrahydro-naphthalen-2-yl)carbamoyl)-4′-methoxy-[1,1′-biphenyl]-3-yl)-2-(tetrahydro-2H-pyran-4-carboxamido)acetic acid] yielded a concentration for a half-maximal effect (EC50) of 1.8 nM.
In turn, `COc1ccc(-c2cc(C(N)C(=O)O)ccc2F)cc1C(=O)Nc1cc2c(cc1C(=O)Nc1ccc(F)c(C(F)(F)F)c1)CCCC2` (single isomer, unassigned) [Example 3, 2-amino-2-(6-fluoro-3′-((3-((4-fluoro-3-(trifluoromethyl)phenyl)carbamoyl)-5,6,7,8-tetrahydronaphthalen-2-yl)carbamoyl)-4′-methoxy-[1,1′-biphenyl]-3-yl)acetic acid] yielded a 50% effective concentration (EC50) of 2300 nM.
In the case of `COc1ccc(C2=NOC3CC(CO)CC23)cc1C(=O)Nc1cc2c(cc1C(=O)Nc1ccc(F)c(C(F)(F)F)c1)CCCC2` (single isomer, unassigned) [Example 13, N-(4-fluoro-3-(trifluoromethyl)phenyl)-3-(5-(5-(hydroxymethyl)-3a,5,6,6a-tetrahydro-4H-cyclopenta[d]-isoxazol-3-yl)-2-methoxybenzamido)-5,6,7,8-tetrahydronaphthalene-2-carboxamide], the response was half-maximal at 19 nM (EC50).
Regarding `COc1ccc(C2=NOC3CC(CO)CC23)cc1C(=O)Nc1cc2c(cc1C(=O)Nc1ccc(F)c(C(F)(F)F)c1)CCCC2` (single isomer, unassigned) [Example 14, N-(4-fluoro-3-(trifluoromethyl)phenyl)-3-(5-(5-(hydroxymethyl)-3a,5,6,6a-tetrahydro-4H-cyclopenta[d]-isoxazol-3-yl)-2-methoxybenzamido)-5,6,7,8-tetrahydronaphthalene-2-carboxamide], the concentration giving a half-maximal response (EC50) worked out at 82 nM.
`COc1ccc(-c2cc(C(=O)O)ccc2F)cc1C(=O)Nc1cc2c(cc1C(=O)Nc1ccc(F)c(C(F)(F)F)c1)CCCC2` [Example 1, 6-fluoro-3′-((3-((4-fluoro-3-(trifluoromethyl)phenyl)carbamoyl)-5,6,7,8-tetrahydronaphthalen-2-yl)carbamoyl)-4′-methoxy-[1,1′-biphenyl]-3-carboxylic acid] displayed an EC50 of 390 nM.
With `COc1ccc(-c2cc([C@H](O)C(F)(F)F)ccc2F)cc1C(=O)Nc1cc2c(cc1C(=O)Nc1ccc(F)c(C(F)(F)F)c1)CCCC2` [Example 4, (S)—N-(4-fluoro-3-(trifluoromethyl)phenyl)-3-(2′-fluoro-4-methoxy-5′-(2,2,2-trifluoro-1-hydroxyethyl)-[1,1′-biphenyl]-3-carboxamido)-5,6,7,8-tetrahydronaphthalene-2-carboxamide], the half-maximal effective concentration (EC50) was 860 nM.
Take `COc1ccc(-c2cc([C@H](OC(=O)Nc3ccccc3)C(F)(F)F)ccc2F)cc1C(=O)Nc1cc2c(cc1C(=O)Nc1ccc(F)c(C(F)(F)F)c1)CCCC2` [Example 5, (S)-2,2,2-trifluoro-1-(6-fluoro-3′-((3-((4-fluoro-3-(trifluoromethyl)phenyl)carbamoyl)-5,6,7,8-tetrahydronaphthalen-2-yl)carbamoyl)-4′-methoxy-[1,1′-biphenyl]-3-yl)ethyl phenylcarbamate]: the EC50 worked out at 33 nM.
Consider `COc1ccc(-c2cc([C@H](OC(=O)NC3CCC3)C(F)(F)F)ccc2F)cc1C(=O)Nc1cc2c(cc1C(=O)Nc1ccc(F)c(C(F)(F)F)c1)CCCC2` [Example 6, (S)-2,2,2-trifluoro-1-(6-fluoro-3′-((3-((4-fluoro-3-(trifluoromethyl)phenyl)carbamoyl)-5,6,7,8-tetrahydronaphthalen-2-yl)carbamoyl)-4′-methoxy-[1,1′-biphenyl]-3-yl)ethyl cyclobutylcarbamate], for which the EC50 worked out at 15 nM.
Molecule `COc1ccc(-c2cc([C@H](OC(=O)NC3CC(F)(F)C3)C(F)(F)F)ccc2F)cc1C(=O)Nc1cc2c(cc1C(=O)Nc1ccc(F)c(C(F)(F)F)c1)CCCC2` [Example 7, (S)-2,2,2-trifluoro-1-(6-fluoro-3′-((3-((4-fluoro-3-(trifluoro-methyl)phenyl)carbamoyl)-5,6,7,8-tetra-hydronaphthalen-2-yl)carbamoyl)-4′-methoxy-[1,1′-biphenyl]-3-yl)ethyl (3,3-difluorocyclo-butyl)carbamate] yielded an EC50 of 62 nM.
Same read-out and setting: next, `COc1ccc(-c2cc(C(=O)NCC3CCC3)ccc2F)cc1C(=O)Nc1cc2c(cc1C(=O)Nc1ccc(F)c(C(F)(F)F)c1)CCCC2` [Example 8, N3′-(cyclobutyl-methyl)-6′-fluoro-N3-(3-((4-fluoro-3-(trifluoromethyl)phenyl)carbamoyl)-5,6,7,8-tetrahydro-naphthalen-2-yl)-4-methoxy-[1,1′-biphenyl]-3,3′-dicarboxamide]: 4200 nM; `COc1ccc(-c2cc(CC(=O)NCC3CCC3)ccc2F)cc1C(=O)Nc1cc2c(cc1C(=O)Nc1ccc(F)c(C(F)(F)F)c1)CCCC2` [Example 9, 3-(5′-(2-((cyclobutylmethyl)amino)-2-oxoethyl)-2′-fluoro-4-methoxy-[1,1′-biphenyl]-3-carboxamido)-N-(4-fluoro-3-(trifluoromethyl)phenyl)-5,6,7,8-tetrahydronaphthalene-2-carboxamide]: 22 nM.
`COc1ccc(C2=NOC3CC(CO)CC23)cc1C(=O)Nc1cc2c(cc1C(=O)Nc1ccc(F)c(C(F)(F)F)c1)CCCC2` (stereo not shown) [Example 12, N-(4-fluoro-3-(trifluoromethyl)phenyl)-3-(5-(5-(hydroxymethyl)-3a,5,6,6a-tetrahydro-4H-cyclopenta[d]-isoxazol-3-yl)-2-methoxybenzamido)-5,6,7,8-tetrahydronaphthalene-2-carboxamide] registered a half-maximal effective concentration (EC50) of 290 nM.

Staying with this experiment, now noted: HEK293 cells stably expressing human RXFP1; phenylcyclopentyl examples.
`COc1ccc(-c2cc(C(=O)O)ccc2F)cc1C(=O)Nc1cc2c(cc1C(=O)Nc1ccc(F)c(C(F)(F)F)c1)CCC2O` (racemic) [Example 29, 6-fluoro-3′-((6-((4-fluoro-3-(trifluoromethyl)phenyl)carbamoyl)-3-hydroxy-2,3-dihydro-1H-inden-5-yl)carbamoyl)-4′-methoxy-[1,1′-biphenyl]-3-carboxylic acid] came in with a concentration giving a half-maximal response (EC50) of 2700 nM.
Same read-out and setting: the value for `COc1ccc(C2=NOC3CC(CO)CC23)cc1C(=O)Nc1cc2c(cc1C(=O)Nc1ccc(F)c(C(F)(F)F)c1)CCC2=O` (single isomer, unassigned) [Example 27, N-(4-fluoro-3-(trifluoromethyl)phenyl)-6-(5-(5-(hydroxymethyl)-3a,5,6,6a-tetrahydro-4H-cyclopenta[d]isoxazol-3-yl)-2-methoxybenzamido)-1-oxo-2,3-dihydro-1H-indene-5-carboxamide] was 34 nM.
`COc1ccc(C2=NOC3CC(CO)CC23)cc1C(=O)Nc1cc2c(cc1C(=O)Nc1ccc(F)c(C(F)(F)F)c1)CCC2=O` (single isomer, unassigned) [Example 28, N-(4-fluoro-3-(trifluoromethyl)phenyl)-6-(5-(5-(hydroxymethyl)-3a,5,6,6a-tetrahydro-4H-cyclopenta[d]isoxazol-3-yl)-2-methoxybenzamido)-1-oxo-2,3-dihydro-1H-indene-5-carboxamide] had an EC50 of 160 nM.
